# Literature values in patent US20140200276A1 (iCeutica, Inc., priority 2009, published 2014).
smiles,measurement,setting,value
COc1ccc2cc([C@H](C)C(=O)O)ccc2c1 [naproxen],administered dose excreted in the feces,in vivo,≤ 3%
same,excreted in the urine as 6-O-desmethyl naproxen,in vivo,< 1%
same,naproxen from any dose excreted in the urine,total,Approximately 95%
same,excreted in the urine as naproxen,unchanged naproxen,< 1%
